Key:
Format in all cases: cell-based
[1] = tested on: Normal human melanocyte/keratinocyte cocultures (NHM/NHK); test: Photoinduced melanogenesis (UV irradiation) in NHM/NHK coculture, anti-pigmentation protocol
Source text: Measurement of the photoinduced melanogenesis-modulating effect of the polymer SMA1000HNa® in the presence or absence of ascorbic acid on a coculture of normal human keratinocytes and melanocytes (anti-pigmentation effect).
(§1) Normal human melanocyte/keratinocyte cocultures (NHM/NHK) undergo 1 irradiation with UV radiation, repeated daily for 4 days, in the presence or absence of the products to be evaluated. The melanin synthesis is quantified as previously by means of the incorporation of ^14C-thiouracil present in the culture medium. In parallel, a protein assay is performed in each well in order to normalize the melanin synthesis and to estimate the toxicity of the product.
More specifically, the melanocytes and keratinocytes are inoculated, respectively, at 80 000 and 250 000 cells per well in 24-well plates in the keratinocyte differentiation medium. The plates are incubated for 3 days at 37° C. before treatment.
To avoid photo-oxidation of one of its components, the culture medium is replaced at the time of irradiation with a solution of the products in PBS. The products are placed in contact with the cells for 15 minutes before irradiation.
The UV irradiation is performed using a sun simulator. The delivered dose is 7 J/cm^2. Irradiation source: Oriel Xénon 1000W simulator+dichroic filter+WG 320/1.5 mm.
The following controls are prepared:
Non-irradiated control (quantification of the constitutive melanogenesis)
Blank irradiation control
2 positive controls of photoinduced melanogenesis inhibition: (100 μM arbutin; 1 μM lucinol).
After irradiation, the PBS is removed and the cells are incubated in a semi-defined culture medium to which are added the products and the ^14C-thiouracil (1 μCi/ml). This treatment is repeated daily for 4 days.
(§2) For each experimental condition, cell lysates are performed by rinsing the cells with a phosphate buffer (PBS). The proteins are precipitated using 5% trichloracetic acid (TCA) and washed in order to remove the free radioactivity. The proteins are incubated over a weekend at 37° C. using a proteinase K solution at 20 μl/ml in tris HCl-Triton-EDTA buffer.
(§3) 5 μl of total extract are taken and transferred into a 96-well plate (Wallac). The proteins are assayed using the Protein Assay Reagent assay kit (Pierce). The amount of proteins per well (P) will be used to normalize the melanogenesis. The rest of the extract is filtered on a DEAE Filtermat filter (Wallac). After rinsing, the filter covered with “Meltilex” solid scintillant (Wallac) is transferred into a Costar counting plate. The radioactivity is counted using a Wallac counter and allows quantification of the melanogenesis (M) by measurement of the ^14C-thiouracil (ccpm) incorporated by the cells.
Normalized melanogenesis (NM)=M/P
Photo-induced melanogenesis (PIM)=NM (irradiated sample)−NM (non-irradiated sample)
Anti-pigmenting effect of the product (%)=[[PIM(irradiated+treated sample)−PIM(irradiated sample)]/PIM(irradiated sample)]×100

[2] = tested on: coculture of normal human keratinocytes and melanocytes; test: Tritiated leucine incorporation (proliferation and early cytotoxicity indicator) in the coculture
Source text: (§4) Specifically, 50 000 normal human keratinocytes and 17 000 normal human melanocytes are mixed together and inoculated per well in 96-well plates (Costar type) and cultured for three days in the differentiation medium. During the following three days, the culture medium is replaced daily with the defined test medium (containing the products to be evaluated, and also 3 μCi/ml of C14-labelled thiouracil).
The total radioactivity incorporated into the proteins is estimated by the incorporation of tritiated leucine, taken as the proliferation indicator and the early cytotoxicity indicator. On the day before the sample is taken, 1 μCi/ml of tritiated leucine is added to the test medium. It is considered that a product is cytotoxic when the content of tritiated leucine falls by at least 30%.
(§5) After one night, the cells are rinsed in phosphate buffer (phosphate-buffered saline, PBS). The proteins are precipitated using 5% trichloracetic acid (TCA) and washed in order to remove the free radioactivity. The proteins are incubated overnight at 37° C. using a proteinase K solution at 20 μl/ml in tris-HCl-Triton EDTA buffer.
(§6) 50 μl of total extract are taken and transferred into a 96-well plate (Wallac) and 150 μl of scintillation liquid (Optiphase “Supermix”) are added. The rest of the extract, i.e. 950 μl, is filtered through a DEAE Filtermat filter. After rinsing, the filter covered with the “Meltilex” solid scintillant is transferred into a counting plate. The radioactivity is counted using a Wallac counter. The results are expressed as a percentage of the control according to the formula: […]

[3] = tested on: Normal human melanocyte/keratinocyte cocultures (NHM/NHK); test: Protein assay per well (toxicity estimate) in UV-irradiated NHM/NHK coculture
Experimental: as §1, §2, §3

[4] = tested on: coculture of normal human keratinocytes and melanocytes; test: Melanogenesis modulation: 14C-thiouracil incorporation in keratinocyte/melanocyte coculture
Experimental: Measurement of the melanogenesis-modulating effect of the copolymer of styrene/hydrolysed maleic anhydride (50/50) in sodium salt form, at 40% in water (SMA1000HNa® from the company Cray Valley), in the presence or absence of ascorbic acid, on a coculture of normal human keratinocytes and melanocytes.
The melanogenesis-modulating effect of the copolymer SMA1000HNa® was tested according to the method described in patent FR-A-2 734 825, and also in the article by R. Schmidt, P. Krien and M. Régnier, Anal. Biochem., 235(2), 113-18, 1996.
Briefly, the method comprises the steps consisting in:
coculturing normal human keratinocytes/melanocytes in a medium containing the tested extract and also a labelled melanin precursor, in the present case C14-labelled thiouracil,
lysing the cells containing the melanin with protein-degrading enzymes,
passing the extract obtained through an anion-exchange filter with a pore diameter of less than or equal to 1 μm, and
evaluating the amount of melanin bound by the filter by means of radioactive assay of the thiouracil.
as §4
The following controls are prepared: • control culture: test medium • positive melanogenesis-stimulating control: test medium+1 mM tyrosine; • 3 positive melanogenesis-inhibiting controls: test medium+, respectively, 500 μM of kojic acid; 100 μM of arbutin; […] of lucinol (2-butyl-1,3-benzenediol).
as §5, §6
14CP is the mean of the disintegrations per minute (dpm) of 14C-thiouracil on 3 similar wells treated with a product (P);
3HP is the mean of the dpm of the corresponding 3H-leucine;
14CT is the mean of the dpm of 14 C-thiouracil on 3 similar control wells (T);
3HT is the mean of the dpm of the corresponding 3H-leucine.
The ratio of the incorporation of thiouracil to the incorporation of leucine is calculated, to normalize the melanogenesis to the amount of proteins present in the well. This ratio reflects the melanogenesis modulation.

## OC[C@H]1O[C@@H](Oc2ccc(O)cc2)[C@H](O)[C@@H](O)[C@@H]1O [Arbutin, arbutin]
[1]; 100 μM + SSR
  Anti-pigmenting effect of the product: −111%
  PIM (%/non-irradiated control): −24%
[2]; 100 μM
  3H Leu. (%/Control): −8%
[3]; 100 μM + SSR
  Proteins (%/non-irradiated control): −15%
[4]; 100 μM
  14C ThioU. (%/Control): −49%
  14C ThioU./3H Leu.: −44%

## O=c1cc(CO)occ1O [Kojic acid, kojic acid]
[2]; 500 μM
  3H Leu. (%/Control): −8%
[4]; 500 μM
  14C ThioU. (%/Control): −56%
  14C ThioU./3H Leu.: −52%

## N[C@@H](Cc1ccc(O)cc1)C(=O)O [Tyrosine, tyrosine]
[2]; 1 mM
  3H Leu. (%/Control): +6%
[4]; 1 mM
  14C ThioU. (%/Control): 96%
  14C ThioU./3H Leu.: 85%

## O=C1O[C@H]([C@@H](O)CO)C(O)=C1O [vitamin C, ascorbic acid]
[1]; Homo sapiens, vitamin C alone, read-out: IC50 (anti-pigmenting effect)
  IC50: ~470 µM
[1]; vitamin C 0.3 mM
  Anti-pigmenting effect of the product: −40%
  PIM (%/non-irradiated control): 134%
[1]; vitamin C 1 mM
  Anti-pigmenting effect of the product: −65%
  PIM (%/non-irradiated control): 78%
[1]; vitamin C 2 mM
  Anti-pigmenting effect of the product: −90%
  PIM (%/non-irradiated control): 23%
[1]; vitamin C 3 mM
  Anti-pigmenting effect of the product: −100%
  PIM (%/non-irradiated control): 0%
[2]; vitamin C 0.1 mM
  3H Leu. (%/Control): 0%
[2]; vitamin C 0.3 mM
  3H Leu. (%/Control): −17%
[2]; vitamin C 0.4 mM
  3H Leu. (%/Control): −23%
[2]; vitamin C 0.6 mM
  3H Leu. (%/Control): −23%
[3]; vitamin C 0.3 mM, UV irradiated
  Proteins (%/non-irradiated control): −12%
[3]; vitamin C 1 mM, UV irradiated
  Proteins (%/non-irradiated control): −19%
[3]; vitamin C 2 mM, UV irradiated
  Proteins (%/non-irradiated control): −19%
[3]; vitamin C 3 mM, UV irradiated
  Proteins (%/non-irradiated control): −22%
[4]; Homo sapiens, vitamin C alone, read-out: IC50 (14C ThioU./3H Leu.)
  IC50: ~230 µM
[4]; vitamin C 0.1 mM
  14C ThioU. (%/Control): −14%
  14C ThioU./3H Leu.: −14%
[4]; vitamin C 0.3 mM
  14C ThioU. (%/Control): −69%
  14C ThioU./3H Leu.: −62%
[4]; vitamin C 0.4 mM
  14C ThioU. (%/Control): −79%
  14C ThioU./3H Leu.: −72%
[4]; vitamin C 0.6 mM
  14C ThioU. (%/Control): −76%
  14C ThioU./3H Leu.: −68%

Reference: patent publication US20080119527A1, “Composition for combating the localized hyperpigmentation of dark skin” (L'OREAL, priority 2006, published 2008)
